Test results reported in patent publication EP4707280A1, “1,4-CINEOLE DERIVATIVE AND INTERMEDIATE THEREOF, HERBICIDE CONTAINING SAID DERIVATIVE AS ACTIVE INGREDIENT, METHOD FOR USING HERBICIDE, AND METHOD FOR PREPARING AGROCHEMICAL COMPOSITION” (HOKKO CHEMICAL INDUSTRY CO., LTD., priority 2023, dated 2024).

Key:
Type in all cases: in vivo
[1] = system: Echinochloa crus-galli var. formosensis; experiment: Test Example 1: herbicidal effect test by soil application in paddy rice; conditions: Echinochloa crus-galli, soil, 336 h; 120 g active ingredient per 10 ares; applied immediately after sowing, flooded pots; 14 days after application; read-out: weed inhibition rate
Method: Wagner pots with an area of […] were filled with paddy soil, followed by addition of water and incorporation of chemical fertilizer (N:P:K = 16:16:16), after which puddling was performed. After that, seeds of Echinochloa crus-galli var. formosensis, broad-leaved weeds ([…] Monochoria vaginalis), and Scirpus juncoides were sown at a depth of 0 cm to 1 cm, 30 seeds each. Immediately after sowing, the pots were flooded and a water depth of approximately 3 cm was maintained. Subsequent management was conducted in a glass greenhouse. Immediately thereafter, an emulsifiable concentrate prepared according to Formulation Example 5 using the compound shown below was diluted with water, and a specified amount of the diluted solution was applied by dropper. The amount of the active ingredient to be applied was equivalent to 120 g per 10 ares.

[2] = system: Echinochloa crus-galli var. formosensis; experiment: Test Example 2: herbicidal effect test by application during growth period of paddy rice; conditions: Echinochloa crus-galli; 120 g per 10 ares; applied seven days after sowing, flooded pots; 14 days after application; read-out: weed inhibition rate
Method: (§1) The present test was conducted in duplicate for each chemical concentration group, and the weed inhibition rate (%) was determined 14 days after chemical application using the following formula (Math. 1). [formula]
Wagner pots with an area of […] were filled with paddy soil, followed by addition of water and incorporation of chemical fertilizer (N:P:K = 16:16:16), after which puddling was performed. After that, seeds of Echinochloa crus-galli var. formosensis, broad-leaved weeds (Monochoria vaginalis), and Scirpus juncoides were sown at a depth of 0 cm to 1 cm, 30 seeds each. Immediately after sowing, the pots were flooded and a water depth of approximately 3 cm was maintained. Subsequent management was conducted in a glass greenhouse. Seven days after sowing, an emulsifiable concentrate prepared according to Formulation Example 5 using the compound shown below was diluted with water, and a specified amount of the diluted solution was applied by dropper. The amount of the active ingredient to be applied was equivalent to 120 g per 10 ares. The test was conducted in duplicate for each chemical concentration group, and the herbicidal effect was evaluated 14 days after chemical application using the same criteria as in Test Example 1.

Digitaria ciliaris [3] = experiment: Test Example 3: herbicidal effect test by soil application in upland field; conditions: Digitaria ciliaris, 120 g per 10 ares, sprayed one day after sowing, 14 days after application, read-out: weed inhibition rate
Method: as §1
(§2) Pots with an area of 36 cm^2 were filled with upland soil (alluvial loam), twenty seeds each of weeds of Digitaria ciliaris, Echinochloa crus-galli, Chenopodium album, and Amaranthus viridis were uniformly mixed with the top 1 cm layer of soil and the surface was lightly pressed down. One day after sowing, an emulsifiable concentrate prepared according to Formulation Example 5 using the compound shown below was diluted with water, and the diluted solution was sprayed onto the soil surface at a rate of 100 liters per 10 ares. The amount of the active ingredient to be applied was equivalent to 120 g per 10 ares. Fourteen days after chemical application, the herbicidal effect was evaluated according to the same criteria as in Test Example 1.

Echinochloa crus-galli [4] = experiment: as above; conditions: Echinochloa crus-galli, 120 g per 10 ares, sprayed one day after sowing, 14 days after application, read-out: weed inhibition rate
Method: as §1, §2

Digitaria ciliaris [5] = experiment: Test Example 4: herbicidal effect test by stem and leaf treatment in upland field; conditions: Digitaria ciliaris; 120 g per 10 ares; sprayed seven days after sowing, upland soil; 14 days after application; read-out: weed inhibition rate
Method: as §1
as §2, with “crus-galli,” for “crus-galli, Chenopodium album,”, “Seven days” for “One day”

Echinochloa crus-galli [6] = experiment: as above; conditions: Echinochloa crus-galli; 120 g per 10 ares; sprayed seven days after sowing, upland soil; 14 days after application; read-out: weed inhibition rate

Cc1cccc(C)c1CO[C@H]1C[C@@]2(C(C)C)O[C@]1(C)C[C@H]2I [1-1118, (1R,2S,4S,5R)-2-[(2,6-dimethylphenyl)methoxy]-5-iodo-1-methyl-4-isopropyl-7-oxabicyclo[2.2.1]heptane]
≥ 80%: pest or weed control at 1200 g/ha [1] | inhibition at 1200 g/ha [2] | inhibition at 1200 g/ha (Digitaria ciliaris [3]) | inhibition at 1200 g/ha (Echinochloa crus-galli [4]) | inhibition at 1200 g/ha (Digitaria ciliaris [5]) | inhibition at 1200 g/ha (Echinochloa crus-galli [6])

CC(C)[C@@]12C[C@H](OCc3c(Cl)cccc3Cl)[C@@](C)(C[C@H]1I)O2 [1-1120, (1R,2S,4S,5R)-2-[(2,6-dichlorophenyl)methoxy]-5-iodo-1-methyl-4-isopropyl-7-oxabicyclo[2.2.1]heptane]
≥ 80%: pest or weed control at 1200 g/ha [1] | inhibition at 1200 g/ha [2] | inhibition at 1200 g/ha (Digitaria ciliaris [3]) | inhibition at 1200 g/ha (Echinochloa crus-galli [4]) | inhibition at 1200 g/ha (Digitaria ciliaris [5]) | inhibition at 1200 g/ha (Echinochloa crus-galli [6])

CC(C)[C@@]12C[C@H](OCc3c(F)cccc3Cl)[C@@](C)(C[C@H]1I)O2 [1-1121, (1R,2S,4S,5R)-2-[(2-chloro-6-fluorophenyl)methoxy]-5-iodo-1-methyl-4-isopropyl-7-oxabicyclo[2.2.1]heptane]
≥ 80%: pest or weed control at 1200 g/ha [1] | inhibition at 1200 g/ha [2] | inhibition at 1200 g/ha (Digitaria ciliaris [3]) | inhibition at 1200 g/ha (Echinochloa crus-galli [4]) | inhibition at 1200 g/ha (Digitaria ciliaris [5]) | inhibition at 1200 g/ha (Echinochloa crus-galli [6])

Cc1cccc(COC2CC3(C(C)C)OC2(C)CC3Br)c1 (stereo not drawn) [1-1344, 5-bromo-1-methyl-2-[(3-methylphenyl)methoxy]-4-isopropyl-7-oxabicyclo[2.2.1]heptane]
≥ 80%: pest or weed control at 1200 g/ha [1] | inhibition at 1200 g/ha [2] | inhibition at 1200 g/ha (Digitaria ciliaris [3]) | inhibition at 1200 g/ha (Echinochloa crus-galli [4]) | inhibition at 1200 g/ha (Digitaria ciliaris [5]) | inhibition at 1200 g/ha (Echinochloa crus-galli [6])

Cc1ccc(COC2CC3(C(C)C)OC2(C)CC3Br)cc1 (stereo not drawn) [1-1345, 5-bromo-1-methyl-2-[(4-methylphenyl)methoxy]-4-isopropyl-7-oxabicyclo[2.2.1]heptane]
≥ 80%: pest or weed control at 1200 g/ha [1] | inhibition at 1200 g/ha [2] | inhibition at 1200 g/ha (Digitaria ciliaris [3]) | inhibition at 1200 g/ha (Echinochloa crus-galli [4]) | inhibition at 1200 g/ha (Digitaria ciliaris [5]) | inhibition at 1200 g/ha (Echinochloa crus-galli [6])

CCc1ccccc1COC1CC2(C(C)C)OC1(C)CC2Br (stereo not drawn) [1-1346, 5-bromo-2-[(2-ethylphenyl)methoxy]-1-methyl-4-isopropyl-7-oxabicyclo[2.2.1]heptane]
≥ 80%: pest or weed control at 1200 g/ha [1] | inhibition at 1200 g/ha [2] | inhibition at 1200 g/ha (Digitaria ciliaris [3]) | inhibition at 1200 g/ha (Echinochloa crus-galli [4]) | inhibition at 1200 g/ha (Digitaria ciliaris [5]) | inhibition at 1200 g/ha (Echinochloa crus-galli [6])

COc1cccc(COC2CC3(C(C)C)OC2(C)CC3Br)c1 (stereo not drawn) [1-1350, 5-bromo-2-[(3-methoxyphenyl)methoxy]-1-methyl-4-isopropyl-7-oxabicyclo[2.2.1]heptane]
≥ 80%: pest or weed control at 1200 g/ha [1] | inhibition at 1200 g/ha [2] | inhibition at 1200 g/ha (Digitaria ciliaris [3]) | inhibition at 1200 g/ha (Echinochloa crus-galli [4]) | inhibition at 1200 g/ha (Digitaria ciliaris [5]) | inhibition at 1200 g/ha (Echinochloa crus-galli [6])

COc1ccc(COC2CC3(C(C)C)OC2(C)CC3Br)cc1 (stereo not drawn) [1-1351, 5-bromo-2-[(4-methoxyphenyl)methoxy]-1-methyl-4-isopropyl-7-oxabicyclo[2.2.1]heptane]
≥ 80%: pest or weed control at 1200 g/ha [1] | inhibition at 1200 g/ha [2] | inhibition at 1200 g/ha (Digitaria ciliaris [3]) | inhibition at 1200 g/ha (Echinochloa crus-galli [4]) | inhibition at 1200 g/ha (Digitaria ciliaris [5]) | inhibition at 1200 g/ha (Echinochloa crus-galli [6])

CC(C)C12CC(OCc3ccccc3OC(F)(F)F)C(C)(CC1Br)O2 (stereo not drawn) [1-1352, 5-bromo-1-methyl-4-isopropyl-2-[[2-(trifluoromethoxy)phenyl]methoxy]-7-oxabicyclo[2.2.1]heptane]
≥ 80%: pest or weed control at 1200 g/ha [1] | inhibition at 1200 g/ha [2] | inhibition at 1200 g/ha (Digitaria ciliaris [3]) | inhibition at 1200 g/ha (Echinochloa crus-galli [4]) | inhibition at 1200 g/ha (Digitaria ciliaris [5]) | inhibition at 1200 g/ha (Echinochloa crus-galli [6])

CC(C)C12CC(OCc3cccc(F)c3)C(C)(CC1Br)O2 (stereo not drawn) [1-1356, 5-bromo-2-[(3-fluorophenyl)methoxy]-1-methyl-4-isopropyl-7-oxabicyclo[2.2.1]heptane]
≥ 80%: pest or weed control at 1200 g/ha [1] | inhibition at 1200 g/ha [2] | inhibition at 1200 g/ha (Digitaria ciliaris [3]) | inhibition at 1200 g/ha (Echinochloa crus-galli [4]) | inhibition at 1200 g/ha (Digitaria ciliaris [5]) | inhibition at 1200 g/ha (Echinochloa crus-galli [6])

CC(C)C12CC(OCc3cccc(Cl)c3)C(C)(CC1Br)O2 (stereo not drawn) [1-1359, 5-bromo-2-[(3-chlorophenyl)methoxy]-1-methyl-4-isopropyl-7-oxabicyclo[2.2.1]heptane]
≥ 80%: pest or weed control at 1200 g/ha [1] | inhibition at 1200 g/ha [2] | inhibition at 1200 g/ha (Digitaria ciliaris [3]) | inhibition at 1200 g/ha (Echinochloa crus-galli [4]) | inhibition at 1200 g/ha (Digitaria ciliaris [5]) | inhibition at 1200 g/ha (Echinochloa crus-galli [6])

CC(C)C12CC(OCc3ccc(Cl)cc3)C(C)(CC1Br)O2 (stereo not drawn) [1-1360, 5-bromo-2-[(4-chlorophenyl)methoxy]-1-methyl-4-isopropyl-7-oxabicyclo[2.2.1]heptane]
≥ 80%: pest or weed control at 1200 g/ha [1] | inhibition at 1200 g/ha [2] | inhibition at 1200 g/ha (Digitaria ciliaris [3]) | inhibition at 1200 g/ha (Echinochloa crus-galli [4]) | inhibition at 1200 g/ha (Digitaria ciliaris [5]) | inhibition at 1200 g/ha (Echinochloa crus-galli [6])

CC(C)C12CC(OCc3cccc(Br)c3)C(C)(CC1Br)O2 (stereo not drawn) [1-1362, 5-bromo-2-[(3-bromophenyl)methoxy]-1-methyl-4-isopropyl-7-oxabicyclo[2.2.1]heptane]
≥ 80%: pest or weed control at 1200 g/ha [1] | inhibition at 1200 g/ha [2] | inhibition at 1200 g/ha (Digitaria ciliaris [3]) | inhibition at 1200 g/ha (Echinochloa crus-galli [4]) | inhibition at 1200 g/ha (Digitaria ciliaris [5]) | inhibition at 1200 g/ha (Echinochloa crus-galli [6])

CC(C)C12CC(OCc3ccc(Br)cc3)C(C)(CC1Br)O2 (stereo not drawn) [1-1363, 5-bromo-2-[(4-bromophenyl)methoxy]-1-methyl-4-isopropyl-7-oxabicyclo[2.2.1]heptane]
≥ 80%: pest or weed control at 1200 g/ha [1] | inhibition at 1200 g/ha [2] | inhibition at 1200 g/ha (Digitaria ciliaris [3]) | inhibition at 1200 g/ha (Echinochloa crus-galli [4]) | inhibition at 1200 g/ha (Digitaria ciliaris [5]) | inhibition at 1200 g/ha (Echinochloa crus-galli [6])

CC(C)C12CC(OCc3ccccc3I)C(C)(CC1Br)O2 (stereo not drawn) [1-1364, 5-bromo-2-[(2-iodophenyl)methoxy]-1-methyl-4-isopropyl-7-oxabicyclo[2.2.1]heptane]
≥ 80%: pest or weed control at 1200 g/ha [1] | inhibition at 1200 g/ha [2] | inhibition at 1200 g/ha (Digitaria ciliaris [3]) | inhibition at 1200 g/ha (Echinochloa crus-galli [4]) | inhibition at 1200 g/ha (Digitaria ciliaris [5]) | inhibition at 1200 g/ha (Echinochloa crus-galli [6])
